pIC50: −log10 of the molar value.
How the values were obtained:
Format in all cases: biochemical
Human plasma kallikrein = Human plasma kallikrein (Homo sapiens (Human), UniProt P03952); test: Determination of the IC50 for plasma kallikrein (fluorogenic substrate H-DPro-Phe-Arg-AFC); conditions: class symbols A-D, read-out: IC50 (human PKal)
Method: The ability of the compounds of formula (I) to inhibit plasma kallikrein may be determined using the following biological assay:
Determination of the IC50 for Plasma Kallikrein
(§1) Plasma kallikrein inhibitory activity in vitro was determined using standard published methods (see e.g. Johansen et al., Int. J. Tiss. Reac. 1986, 8, 185; Shori et al., Biochem. Pharmacol., 1992, 43, 1209; Sturzebecher et al., Biol. Chem. Hoppe-Seyler, 1992, 373, 1025). Human plasma kallikrein (Protogen) was incubated at 25° C. with the fluorogenic substrate H-DPro-Phe-Arg-AFC and various concentrations of the test compound. Residual enzyme activity (initial rate of reaction) was determined by measuring the change in optical absorbance at 410 nm and the IC50 value for the test compound was determined.

Human KLK1 = Human KLK1 (Homo sapiens (Human), UniProt P06870); test: Determination of the IC50 for KLK1 (fluorogenic substrate H-DVal-Leu-Arg-AFC)
Chain of Human KLK1 (P06870 25-262): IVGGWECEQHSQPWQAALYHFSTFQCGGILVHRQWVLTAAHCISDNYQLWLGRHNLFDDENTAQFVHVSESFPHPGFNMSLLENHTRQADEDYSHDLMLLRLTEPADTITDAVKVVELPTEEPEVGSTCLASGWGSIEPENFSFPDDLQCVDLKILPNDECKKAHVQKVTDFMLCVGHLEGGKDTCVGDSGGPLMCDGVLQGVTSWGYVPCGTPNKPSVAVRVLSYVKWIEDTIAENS
Method: Selected compounds were further screened for inhibitory activity against the related enzyme KLK1. The ability of the compounds of formula (I) to inhibit KLK1 may be determined using the following biological assay:
Determination of the IC50 for KLK1
as §1, with “KLK1” for “Plasma kallikrein”, “KLK1 (Callbiochem)” for “plasma kallikrein (Protogen)”, “H-DVal-Leu-Arg-AFC” for “H-DPro-Phe-Arg-AFC”

Human FXIa = Human FXIa (Homo sapiens (Human), UniProt P03951); test: Determination of the % inhibition for FXIa (fluorogenic substrate Z-Gly-Pro-Arg-AFC; 40 μM or IC50)
Chain of Human FXIa (P03951 388-625): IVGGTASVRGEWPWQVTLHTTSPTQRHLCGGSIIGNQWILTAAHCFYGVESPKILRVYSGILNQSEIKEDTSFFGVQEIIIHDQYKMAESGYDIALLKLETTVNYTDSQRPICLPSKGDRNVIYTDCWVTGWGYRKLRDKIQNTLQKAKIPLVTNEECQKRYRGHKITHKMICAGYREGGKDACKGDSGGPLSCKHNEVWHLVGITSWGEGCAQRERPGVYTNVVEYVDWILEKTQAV
Chain of Human FXIa (P03951 19-387 partner): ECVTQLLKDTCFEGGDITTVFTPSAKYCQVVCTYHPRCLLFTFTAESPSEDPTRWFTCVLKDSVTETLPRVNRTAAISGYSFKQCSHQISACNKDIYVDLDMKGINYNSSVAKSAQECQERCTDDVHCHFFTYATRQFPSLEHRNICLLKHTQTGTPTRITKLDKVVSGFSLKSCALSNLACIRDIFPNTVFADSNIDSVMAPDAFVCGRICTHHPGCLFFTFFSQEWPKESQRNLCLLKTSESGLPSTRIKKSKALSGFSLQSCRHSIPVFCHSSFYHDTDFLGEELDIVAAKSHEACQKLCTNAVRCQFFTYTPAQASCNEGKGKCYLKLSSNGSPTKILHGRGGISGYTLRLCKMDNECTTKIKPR
Method: Selected compounds were further screened for inhibitory activity against the related enzyme FXIa. The ability of the compounds of formula (I) to inhibit FXIa may be determined using the following biological assay:
Determination of the % Inhibition for FXIa
FXIa inhibitory activity in vitro was determined using standard published methods (see e.g. Johansen et al., Int. J. Tiss. Reac. 1986, 8, 185; Shori et al., Biochem. Pharmacol., 1992, 43, 1209; Sturzebecher et al., Biol. Chem. Hoppe-Seyler, 1992, 373, 1025). Human FXIa (Enzyme Research Laboratories) was incubated at 25° C. with the fluorogenic substrate Z-Gly-Pro-Arg-AFC and 40 μM of the test compound (or alternatively at various concentrations of the test compound in order to determine IC50). Residual enzyme activity (initial rate of reaction) was determined by measuring the change in optical absorbance at 410 nm and the IC50 value for the test compound was determined.

Chain of Human plasma kallikrein (P03952 391-638): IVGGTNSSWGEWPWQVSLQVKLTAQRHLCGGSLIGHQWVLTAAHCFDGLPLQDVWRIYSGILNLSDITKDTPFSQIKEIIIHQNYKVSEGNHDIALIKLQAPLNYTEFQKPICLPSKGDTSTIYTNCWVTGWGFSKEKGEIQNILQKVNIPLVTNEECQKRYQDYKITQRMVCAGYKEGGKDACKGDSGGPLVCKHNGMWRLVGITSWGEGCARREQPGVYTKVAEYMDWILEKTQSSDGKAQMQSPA
Chain of Human plasma kallikrein (P03952 20-390 partner): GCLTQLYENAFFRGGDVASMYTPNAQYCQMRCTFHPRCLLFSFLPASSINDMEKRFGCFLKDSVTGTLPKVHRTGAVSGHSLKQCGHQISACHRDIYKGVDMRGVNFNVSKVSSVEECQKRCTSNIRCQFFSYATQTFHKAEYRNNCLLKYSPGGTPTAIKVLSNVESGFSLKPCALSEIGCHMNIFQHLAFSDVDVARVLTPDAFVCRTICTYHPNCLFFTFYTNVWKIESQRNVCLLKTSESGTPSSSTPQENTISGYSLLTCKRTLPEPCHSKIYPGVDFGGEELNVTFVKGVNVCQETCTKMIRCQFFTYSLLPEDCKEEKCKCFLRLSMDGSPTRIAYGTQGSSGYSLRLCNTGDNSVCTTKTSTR

Row | SMILES | pIC50 (Human plasma kallikrein) | pIC50 (Human KLK1) | pIC50 (Human FXIa)
1 | CCN1CCc2cc(Cn3cc(C(=O)NCc4c(-n5ccc(C#N)n5)ccc(OC)c4F)c(COC)n3)ccc2C1 [Example 52, N-{[6-(3-cyanopyrazol-1-yl)-2-fluoro-3-methoxyphenyl]methyl}-1-[(2-ethyl-3,4-dihydro-1H-isoquinolin-6-yl)methyl]-3-(methoxymethyl)pyrazole-4-carboxamide] | > 8.00 | < 4.40 | < 4.40
2 | COCc1nn(Cc2ccc3c(c2)CN(C2CC2)CC3)cc1C(=O)NCc1c(-n2cnc(C(F)F)n2)ccc(OC)c1F [Example 19, 1-[(2-cyclopropyl-3,4-dihydro-1H-isoquinolin-7-yl)methyl]-N-({6-[3-(difluoromethyl)-1,2,4-triazol-1-yl]-2-fluoro-3-methoxyphenyl}methyl)-3-(methoxymethyl)pyrazole-4-carboxamide] | > 8.00 | < 4.40 | < 4.40
3 | COCc1nn(Cc2ccc3c(c2)CN(C)CC3)cc1C(=O)NCc1c(-n2ccc(C3CC3)n2)ccc(OC)c1F [Example 9, N-{[6-(3-cyclopropylpyrazol-1-yl)-2-fluoro-3-methoxyphenyl]methyl}-3-(methoxymethyl)-1-[(2-methyl-3,4-dihydro-1H-isoquinolin-7-yl)methyl]pyrazole-4-carboxamide] | 7.00 to 7.52 | < 4.40 | < 4.40
4 | COCc1nn(Cc2ccc3c(c2)CN(C2CC2)CC3)cc1C(=O)NCc1c(-n2ccc(C#N)n2)ccc(OC)c1F [Example 21, N-{[6-(3-cyanopyrazol-1-yl)-2-fluoro-3-methoxyphenyl]methyl}-1-[(2-cyclopropyl-3,4-dihydro-1H-isoquinolin-7-yl)methyl]-3-(methoxymethyl)pyrazole-4-carboxamide] | > 8.00 | < 4.40 | 4.43
5 | COCc1nn(Cc2ccc3c(c2)CCN(C2CC2)C3)cc1C(=O)NCc1c(-n2ccc(C#N)n2)ccc(OC)c1F [Example 49, N-{[6-(3-cyanopyrazol-1-yl)-2-fluoro-3-methoxyphenyl]methyl}-1-[(2-cyclopropyl-3,4-dihydro-1H-isoquinolin-6-yl)methyl]-3-(methoxymethyl)pyrazole-4-carboxamide] | 7.52 to 8.00 | < 4.40 | < 4.40
6 | CCc1ncn(-c2ccc(OC)c(F)c2CNC(=O)c2cn(Cc3ccc4c(c3)CN(C)CC4)nc2COC)n1 [Example 6, N-{[6-(3-ethyl-1,2,4-triazol-1-yl)-2-fluoro-3-methoxyphenyl]methyl}-3-(methoxymethyl)-1-[(2-methyl-3,4-dihydro-1H-isoquinolin-7-yl)methyl]pyrazole-4-carboxamide] | > 8.00 | < 4.40 | < 4.40
7 | COCc1nn(Cc2ccc3c(c2)CN(C)CC3)cc1C(=O)NCc1c(-n2nc(C)nc2C)ccc(OC)c1F [Example 29, N-{[6-(dimethyl-1,2,4-triazol-1-yl)-2-fluoro-3-methoxyphenyl]methyl}-3-(methoxymethyl)-1-[(2-methyl-3,4-dihydro-1H-isoquinolin-7-yl)methyl]pyrazole-4-carboxamide] | > 8.00 | < 4.40 | < 4.40
8 | COc1ccc(-n2cnc(C(F)(F)F)n2)c(CNC(=O)c2cnn(Cc3ccc4c(c3)CN(C(C)C)CC4)c2)c1F [Example 32, N-({2-fluoro-3-methoxy-6-[3-(trifluoromethyl)-1,2,4-triazol-1-yl]phenyl}methyl)-1-[(2-isopropyl-3,4-dihydro-1H-isoquinolin-7-yl)methyl]pyrazole-4-carboxamide] | > 8.00 | < 4.40 | 4.71
9 | COCc1nn(Cc2ccc3c(c2)C2CCC3N2C(C)C)cc1C(=O)NCc1c(-n2cc(C)nn2)ccc(OC)c1F (stereo not drawn) [Example 123, N-{[2-fluoro-3-methoxy-6-(4-methyl-1,2,3-triazol-1-yl)phenyl]methyl}-1-({11-isopropyl-11-azatricyclo[6.2.1.0^{2,7}]undeca-2(7),3,5-trien-4-yl}methyl)-3-(methoxymethyl)pyrazole-4-carboxamide] | 7.00 to 7.52 | < 4.40 | < 4.40
10 | COCc1nn(Cc2ccc3c(c2)CN(C2CCC2)CC3)cc1C(=O)NCc1c(-n2cc(C)nn2)ccc(OC)c1F [Example 18, 1-((2-cyclobutyl-1,2,3,4-tetrahydroisoquinolin-7-yl)methyl)-N-(2-fluoro-3-methoxy-6-(4-methyl-1H-1,2,3-triazol-1-yl)benzyl)-3-(methoxymethyl)-1H-pyrazole-4-carboxamide] | > 8.00 | < 4.40 | < 4.40
11 | CCN1CCc2ccc(Cn3cc(C(=O)NCc4c(-n5cc(C)nn5)ccc(OC)c4F)c(COC)n3)cc2C1 [Example 16, 1-[(2-ethyl-3,4-dihydro-1H-isoquinolin-7-yl)methyl]-N-{[2-fluoro-3-methoxy-6-(4-methyl-1,2,3-triazol-1-yl)phenyl]methyl}-3-(methoxymethyl)pyrazole-4-carboxamide] | > 8.00 | < 4.40 | < 4.40
12 | COCc1nn(Cc2ccc3c(c2)CN(C(C)C)C3)cc1C(=O)NCc1c(-n2cnc(C(F)(F)F)n2)ccc(OC)c1F [Example 60, N-({2-fluoro-3-methoxy-6-[3-(trifluoromethyl)-1,2,4-triazol-1-yl]phenyl}methyl)-1-[(2-isopropyl-1,3-dihydroisoindol-5-yl)methyl]-3-(methoxymethyl)pyrazole-4-carboxamide] | > 8.00 | < 4.40 | < 4.40
13 | COc1ccc(-n2cc(C)nn2)c(CNC(=O)c2ccn(Cc3ccc4c(c3)CN(C)CC4)c(=O)c2)c1F [Example 159, N-{[2-fluoro-3-methoxy-6-(4-methyl-1,2,3-triazol-1-yl)phenyl]methyl}-1-[(2-methyl-3,4-dihydro-1H-isoquinolin-7-yl)methyl]-2-oxopyridine-4-carboxamide] | 6.00 to 7.00 | < 4.40 | < 4.40
14 | COCc1nn(Cc2cnc3c(c2Cl)CCN(C)C3)cc1C(=O)NCc1c(-n2cc(C)nn2)ccc(OC)c1F [Example 64, 1-[(4-chloro-7-methyl-6,8-dihydro-5H-1,7-naphthyridin-3-yl)methyl]-N-{[2-fluoro-3-methoxy-6-(4-methyl-1,2,3-triazol-1-yl)phenyl]methyl}-3-(methoxymethyl)pyrazole-4-carboxamide] | 7.00 to 7.52 | < 4.40 | < 4.40
15 | COCc1nn(Cc2nc3c(s2)CN(C)CC3)cc1C(=O)NCc1c(-n2cc(C)nn2)ccc(OC)c1F [Example 109, N-{[2-fluoro-3-methoxy-6-(4-methyl-1,2,3-triazol-1-yl)phenyl]methyl}-3-(methoxymethyl)-1-({5-methyl-4H,6H,7H-[1,3]thiazolo[5,4-c]pyridin-2-yl}methyl)pyrazole-4-carboxamide] | 6.00 to 7.00 | < 4.40 | < 4.40
16 | COCc1nn(Cc2ccc3c(c2)CN(C)CC3(C)C)cc1C(=O)NCc1c(-n2cc(C)nn2)ccc(OC)c1F [Example 134, N-{[2-fluoro-3-methoxy-6-(4-methyl-1,2,3-triazol-1-yl)phenyl]methyl}-3-(methoxymethyl)-1-[(2,4,4-trimethyl-1,3-dihydroisoquinolin-7-yl)methyl]pyrazole-4-carboxamide] | 7.52 to 8.00 | < 4.40 | < 4.40
17 | COCc1nn(Cc2ccc3c(c2Cl)CCN(C)C3)cc1C(=O)NCc1c(-n2cc(C)nn2)ccc(OC)c1F [Example 104, 1-[(5-chloro-2-methyl-3,4-dihydro-1H-isoquinolin-6-yl)methyl]-N-{[2-fluoro-3-methoxy-6-(4-methyl-1,2,3-triazol-1-yl)phenyl]methyl}-3-(methoxymethyl)pyrazole-4-carboxamide] | 7.00 to 7.52 | < 4.40 | < 4.40
18 | COCc1nn(Cc2cnc3c(c2)CCN(CC(F)F)C3)cc1C(=O)NCc1c(-n2cc(C)nn2)ccc(OC)c1F [Example 115, 1-{[7-(2,2-difluoroethyl)-6,8-dihydro-5H-1,7-naphthyridin-3-yl]methyl}-N-{[2-fluoro-3-methoxy-6-(4-methyl-1,2,3-triazol-1-yl)phenyl]methyl}-3-(methoxymethyl)pyrazole-4-carboxamide] | 7.52 to 8.00 | < 5.40 | < 5.40
